Starred links: 1 amine or outer side, 2 acyl side, 3 side chain; linkers in the order of their positions; H or OH if unused. Positions of bridges follow the written chain, without caps; N, C: chain ends. Non-standard residues stand in square brackets, D forms with d. Residues, ends and D or L forms follow the SMILES beside them. Groups on a side chain read outwards from the residue. ξ: configuration not given here. *: point of attachment. NH(Fluorescein-5-yl) = O=C1OC2(c3ccc(O)cc3Oc3cc(O)ccc32)c2ccc(N*)cc21; Tyr(3-I) = N[C@@H](Cc1ccc(O)c(I)c1)C(=O)O; Mca = COc1ccc2c(CC(=O)*)cc(=O)oc2c1; Hyp = O=C(O)[C@@H]1C[C@@H](O)CN1; Ile(3ξ) = CCC(C)[C@H](N)C(=O)O; CO = O=C([*:1])[*:2]; Ahx = NCCCCCC(=O)O; βAla = NCCC(=O)O

A word on the Kd: it is a measure of binding affinity in units of concentration.

One test deals with T1, DD(E) fragment of fibrin (Homo sapiens, UniProt P02671+P02675+P02679, DEL433-453).
T1 construct: complex of the crosslinked D domains of adjacent fibrin monomers with the central E domain of fibrin
T1 sequence (P02671 130-216 limits assumed, stated change not applied): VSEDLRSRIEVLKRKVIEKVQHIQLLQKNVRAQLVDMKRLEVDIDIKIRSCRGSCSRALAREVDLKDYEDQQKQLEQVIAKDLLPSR
T1 sequence (P02671 36-97 limits assumed, stated change not applied): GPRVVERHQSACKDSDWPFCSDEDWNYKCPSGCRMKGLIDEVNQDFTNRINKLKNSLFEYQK
T1 sequence (P02675 164-491 limits assumed, stated change not applied): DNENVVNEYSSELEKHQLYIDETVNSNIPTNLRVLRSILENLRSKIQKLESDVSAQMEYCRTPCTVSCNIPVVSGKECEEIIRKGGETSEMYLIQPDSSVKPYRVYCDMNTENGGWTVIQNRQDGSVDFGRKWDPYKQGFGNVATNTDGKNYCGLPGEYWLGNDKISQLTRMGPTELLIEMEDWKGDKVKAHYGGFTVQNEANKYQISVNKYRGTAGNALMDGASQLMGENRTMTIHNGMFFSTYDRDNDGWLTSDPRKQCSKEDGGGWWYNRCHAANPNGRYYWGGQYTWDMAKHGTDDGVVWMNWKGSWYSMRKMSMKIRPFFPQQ
T1 sequence (P02675 45-152 limits assumed, stated change not applied): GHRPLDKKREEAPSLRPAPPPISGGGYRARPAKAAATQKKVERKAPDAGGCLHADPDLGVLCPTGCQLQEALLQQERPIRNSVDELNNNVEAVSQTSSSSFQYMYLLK
T1 sequence (P02679 114-432 limits assumed, stated change not applied): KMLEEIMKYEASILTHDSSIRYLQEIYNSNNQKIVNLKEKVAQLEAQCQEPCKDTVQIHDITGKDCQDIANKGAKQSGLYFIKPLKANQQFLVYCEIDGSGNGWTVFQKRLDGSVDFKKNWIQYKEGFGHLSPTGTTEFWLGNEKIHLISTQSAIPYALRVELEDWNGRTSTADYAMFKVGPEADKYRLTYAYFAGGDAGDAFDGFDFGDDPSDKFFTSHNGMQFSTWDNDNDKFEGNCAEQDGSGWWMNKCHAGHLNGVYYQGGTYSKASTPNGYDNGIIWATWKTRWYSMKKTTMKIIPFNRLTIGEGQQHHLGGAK
T1 sequence (P02679 27-88 limits assumed, stated change not applied): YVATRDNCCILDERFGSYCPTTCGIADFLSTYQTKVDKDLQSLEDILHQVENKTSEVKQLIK
The test is described as follows: Dissociation constant (Kd) of optical agent for DD(E) fragment of fibrin. The conditions noted are these: 24° C.; read-out: Kd (μM) vs. DD(E) @ 24° C. The test is classed as binding. An excerpt:
Optical agents of the invention include an OD and a FBM covalently bound to each other, either directly or via a linker (OD-L-FBM). The FBM can be a small molecule or a peptide. As used herein, the term “peptide” refers to a chain of amino acids that is about 2 to about 75 amino acids in length (e.g., 3 to 50 amino acids). Affinity of a peptide for fibrin can be expressed in terms of its dissociation constant (Kd), which is the equilibrium constant for the dissociation reaction of the peptide from the DD(E) fragment of fibrin. The term “DD(E) fragment of fibrin” refers to a fibrin subcomponent generated by proteolytic degradation of fibrin with plasmin or trypsin. The DD(E) fragment is a complex of the crosslinked D domains of adjacent fibrin monomers with the central E domain of fibrin (See, for example, Spraggon et al., Nature 389:455462 (1997)). Since DD(E) is a product resulting from the proteolysis of fibrin, one of skill in the art will understand that there may be some slight heterogeneity in its composition. The DD(E) fragment can be biotinylated and immobilized via avidin to a solid substrate (e.g., a multi-well plate). Peptides can be incubated with the immobilized DD(E) fragment in a suitable buffer and binding detected using known methodology. Methods for determining the dissociation constant of the peptide for DD(E) are set forth in WO 01/09188.
As a result of the FBM having affinity for fibrin, the optical agent also has affinity for fibrin. The term “affinity” refers to the capacity of the optical agent to be taken up by, retained by, or bound to the fibrin in the lesion. The affinity of an optical agent can be expressed in terms of its Kd, which is the equilibrium constant for the dissociation reaction of the optical agent from fibrin, and determined as discussed above for the peptide. The dissociation constant of the optical agent for DD(E) can have a value less than about 10 μM (e.g., 0.1 μM to 10 μM). In one embodiment, the dissociation constant value is less than about 5 μM. In another embodiment, the dissociation constant value is less than about 1 μM. The dissociation constant also may have a value less than about 0.3 μM (e.g., 0.2 μM).
In the methods of the present invention, the optical agent forms a fibrin-optical agent complex at the site of the lesion. The ability of the optical agent to form a fibrin-optical agent complex may be measured by examining the optical agent's dissociation constant (Kd) for a DD(E) fragment of fibrin as discussed above.
In the case of `CC[C@H](C)[C@H](NC(=O)[C@H](Cc1c[nH]cn1)NC(=O)[C@@H]1CSSC[C@H](NC(=O)[C@H](Cc2c[nH]cn2)NC(=O)[C@H](Cc2ccccc2)NC(=O)CNC(=O)CNC(=O)CCCCCNC(=O)Nc2ccc3c(c2)C(=O)OC32c3ccc(O)cc3Oc3cc(O)ccc32)C(=O)N2C[C@H](O)C[C@H]2C(=O)N[C@@H](Cc2ccc(O)c(I)c2)C(=O)N[C@@H](CC(=O)O)C(=O)N[C@@H](CC(C)C)C(=O)N1)C(=O)N[C@@H](CC(C)C)C(N)=O` [Structure V] ({NH(Fluorescein-5-yl)-CO-Ahx}-GGFHC[Hyp][Tyr(3-I)]DLCHIL-NH2; disulfide 5-10), the Kd amounted to 0.09 µM.
As for `CC[C@H](C)[C@H](NC(=O)[C@H](Cc1c[nH]cn1)NC(=O)[C@@H]1CSSC[C@H](NC(=O)[C@H](Cc2c[nH]cn2)NC(=O)[C@H](Cc2ccccc2)NC(=O)[C@H](Cc2c[nH]c3ccccc23)NC(=O)CCCCCNC(=O)Nc2ccc3c(c2)C(=O)OC32c3ccc(O)cc3Oc3cc(O)ccc32)C(=O)N2C[C@H](O)C[C@H]2C(=O)N[C@@H](Cc2ccc(O)c(I)c2)C(=O)N[C@@H](CC(=O)O)C(=O)N[C@@H](CC(C)C)C(=O)N1)C(=O)N[C@@H](CC(C)C)C(N)=O` [Structure IV] ({NH(Fluorescein-5-yl)-CO-Ahx}-WFHC[Hyp][Tyr(3-I)]DLCHIL-NH2; disulfide 4-9), the Kd stood at 0.06 µM.
For `CC[C@H](C)[C@H](NC(=O)[C@H](Cc1c[nH]cn1)NC(=O)[C@@H]1CSSC[C@H](NC(=O)[C@H](Cc2c[nH]cn2)NC(=O)[C@H](Cc2ccccc2)NC(=O)CNC(=O)CCCCCNC(=O)Nc2ccc3c(c2)C(=O)OC32c3ccc(O)cc3Oc3cc(O)ccc32)C(=O)N2C[C@H](O)C[C@H]2C(=O)N[C@@H](Cc2ccc(O)c(I)c2)C(=O)N[C@@H](CC(=O)O)C(=O)N[C@@H](CC(C)C)C(=O)N1)C(=O)N[C@@H](CC(C)C)C(N)=O` [Structure III] ({NH(Fluorescein-5-yl)-CO-Ahx}-GFHC[Hyp][Tyr(3-I)]DLCHIL-NH2; disulfide 4-9), the equilibrium dissociation constant (Kd) was 0.1 µM.
As for `CC[C@H](C)[C@H](NC(=O)[C@H](Cc1c[nH]cn1)NC(=O)[C@@H]1CSSC[C@H](NC(=O)[C@H](Cc2c[nH]cn2)NC(=O)[C@H](Cc2ccccc2)NC(=O)CNC(=O)CNC(=O)[C@@H](N)CCCCNC(=O)Nc2ccc3c(c2)C(=O)OC32c3ccc(O)cc3Oc3cc(O)ccc32)C(=O)N2C[C@H](O)C[C@H]2C(=O)N[C@@H](Cc2ccc(O)c(I)c2)C(=O)N[C@@H](CC(=O)O)C(=O)N[C@@H](CC(C)C)C(=O)N1)C(=O)N[C@@H](CC(C)C)C(N)=O` [Structure IX] (H-K([CO-NH(Fluorescein-5-yl)])GGFHC[Hyp][Tyr(3-I)]DLCHIL-NH2; disulfide 6-11), the Kd was 0.1 µM.
As to `CC[C@H](C)[C@H](NC(=O)[C@H](Cc1c[nH]cn1)NC(=O)[C@@H]1CSSC[C@H](NC(=O)[C@H](Cc2c[nH]cn2)NC(=O)[C@H](Cc2ccccc2)NC(=O)CCNC(=O)Nc2ccc3c(c2)C(=O)OC32c3ccc(O)cc3Oc3cc(O)ccc32)C(=O)N2C[C@H](O)C[C@H]2C(=O)N[C@@H](Cc2ccc(O)c(I)c2)C(=O)N[C@@H](CC(=O)O)C(=O)N[C@@H](CC(C)C)C(=O)N1)C(=O)N[C@@H](CC(C)C)C(N)=O` [Structure I] ({NH(Fluorescein-5-yl)-CO-βAla}-FHC[Hyp][Tyr(3-I)]DLCHIL-NH2; disulfide 3-8), the equilibrium dissociation constant (Kd) came out at 0.1 µM.
With `CC[C@H](C)[C@H](NC(=O)[C@H](Cc1c[nH]cn1)NC(=O)[C@@H]1CSSC[C@H](NC(=O)[C@H](Cc2c[nH]cn2)NC(=O)[C@H](Cc2ccccc2)NC(=O)CCCCCNC(=O)Nc2ccc3c(c2)C(=O)OC32c3ccc(O)cc3Oc3cc(O)ccc32)C(=O)N2C[C@H](O)C[C@H]2C(=O)N[C@@H](Cc2ccc(O)c(I)c2)C(=O)N[C@@H](CC(=O)O)C(=O)N[C@@H](CC(C)C)C(=O)N1)C(=O)N[C@@H](CC(C)C)C(N)=O` [Structure II] ({NH(Fluorescein-5-yl)-CO-Ahx}-FHC[Hyp][Tyr(3-I)]DLCHIL-NH2; disulfide 3-8), the dissociation constant (Kd) was determined as 0.1 µM.

Still in this test, the particulars now being: read-out: Kd vs. DD(E).
Consider `COc1ccc2c(CC(=O)NCCCCCC(=O)N[C@@H](CC(C)C)C(=O)N3CCC[C@H]3C(=O)N[C@H]3CSSC[C@@H](C(=O)N[C@@H](CC(C)C)C(=O)N[C@@H](CC(=O)O)C(N)=O)NC(=O)[C@H](C(C)O)NC(=O)CNC(=O)[C@H](Cc4ccc(O)cc4)NC(=O)[C@H](Cc4ccc(O)cc4)NC(=O)[C@H](CC(=O)O)NC3=O)cc(=O)oc2c1` (some centres unmarked) [Structure XII], for which the Kd was 6.6 µM.
Turning to `CCC(C)[C@H](NC(=O)[C@H](Cc1c[nH]c2ccccc12)NC(=O)[C@@H]1CSSC[C@H](NC(=O)[C@H](CCC(=O)O)NC(=O)[C@H](Cc2c[nH]c3ccccc23)NC(=O)[C@@H](CCC(N)=O)NC(=O)CCCCCNC(=O)Cc2cc(=O)oc3cc(OC)ccc23)C(=O)N2CCC[C@H]2C(=O)N[C@@H](Cc2ccc(O)cc2)C(=O)NCC(=O)N[C@@H](CC(C)C)C(=O)N1)C(=O)N[C@@H](CCC(N)=O)C(N)=O` (some centres unmarked) [Structure XIII] ({Mca-Ahx}-[dQ]WECPYGLCW[Ile(3ξ)]Q-NH2; disulfide 4-9), the Kd is 0.2 µM.

The record behind these values is patent US20060148683A1, “Detection and treatment of intravascular lesions” (priority 2001, published 2006).
